Test results taken from PubChem BioAssay AID2060497 (Molecular Pharmacology Branch, DTP, NCI, 2025).
Each block holds one compound with its values, some of them ahead of it.

Test system: 317291-083-R-J1-PDC complex spheroids, viability
Assay: Anticancer human tumor 317291-083-R-J1-PDC patient-derived soft tissue sarcoma cell line growth inhibition [GQUAD]
Settings: for IC50: curve of first compound; for viability, T/C: stronger effect = lower value
Outline: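 Multi-cell-type spheroids of tumor cells with HUVEC and mesenchymal stem cells, treated with drug combinations. Concentrations descend in half-log steps from near clinical Cmax, or from 10 microM where Cmax is unknown; viability read-out.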

[1] = second compound 0.0316 µM, first compound 0.0316 µM
[2] = second compound 0.0316 µM, first compound 0.316 µM
[3] = second compound 0.1 µM, first compound 0.0316 µM
[4] = second compound 0.1 µM, first compound 0.316 µM
[5] = second compound 0.316 µM, first compound 0.0316 µM
[6] = second compound 0.316 µM, first compound 0.316 µM
[7] = second compound 1 µM, first compound 0.0316 µM
[8] = second compound 1 µM, first compound 0.316 µM
[9] = second compound 3.16 µM, first compound 0.0316 µM
[10] = second compound 3.16 µM, first compound 0.316 µM
[11] = second compound 10 µM, first compound 0.0316 µM
[12] = second compound 10 µM, first compound 0.316 µM
[13] = second compound 0.0316 µM, first compound 0.000999 µM
[14] = second compound 0.0316 µM, first compound 0.00316 µM
[15] = second compound 0.0316 µM, first compound 0.00999 µM
[16] = second compound 0.0316 µM, first compound 0.0999 µM
[17] = second compound 0.1 µM, first compound 0.000999 µM
[18] = second compound 0.1 µM, first compound 0.00316 µM
[19] = second compound 0.1 µM, first compound 0.00999 µM
[20] = second compound 0.1 µM, first compound 0.0999 µM
[21] = second compound 0.316 µM, first compound 0.000999 µM
[22] = second compound 0.316 µM, first compound 0.00316 µM
[23] = second compound 0.316 µM, first compound 0.00999 µM
[24] = second compound 0.316 µM, first compound 0.0999 µM
[25] = second compound 1 µM, first compound 0.000999 µM
[26] = second compound 1 µM, first compound 0.00316 µM
[27] = second compound 1 µM, first compound 0.00999 µM
[28] = second compound 1 µM, first compound 0.0999 µM
[29] = second compound 3.16 µM, first compound 0.000999 µM
[30] = second compound 3.16 µM, first compound 0.00316 µM
[31] = second compound 3.16 µM, first compound 0.00999 µM
[32] = second compound 3.16 µM, first compound 0.0999 µM
[33] = second compound 10 µM, first compound 0.000999 µM
[34] = second compound 10 µM, first compound 0.00316 µM
[35] = second compound 10 µM, first compound 0.00999 µM
[36] = second compound 10 µM, first compound 0.0999 µM
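Also: spheroids exposed to compounds for one week before readout.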
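For viability, T/C in this document: percent viability relative to DMSO vehicle wells taken as 100%.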

IC50 (second compound 0.0316 µM): < 31.6 nM
IC50 (second compound 0.1 µM): < 31.6 nM
IC50 (second compound 0.316 µM): < 31.6 nM
IC50 (second compound 1 µM): < 31.6 nM
IC50 (second compound 3.16 µM): < 31.6 nM
IC50 (second compound 10 µM): < 31.6 nM
SMILES: CC(=O)O[C@H]1C(=O)[C@@]2(C)[C@H]([C@H](OC(=O)c3ccccc3)[C@]3(O)C[C@H](OC(=O)[C@H](O)[C@@H](NC(=O)c4ccccc4)c4ccccc4)C(C)=C1C3(C)C)[C@]1(OC(C)=O)CO[C@@H]1C[C@@H]2O + Cc1cnc(CNC(=O)c2c(=O)c3ccc(N4CCCN(C)CC4)nc3n3c2sc2ccccc23)cn1
viability, T/C [1]: 29.2%
viability, T/C (second compound 0.0316 µM, first compound 0.1 µM): 14.9%
viability, T/C [2]: 8.69%
viability, T/C (second compound 0.0316 µM, first compound 1 µM): 9.72%
viability, T/C (second compound 0.0316 µM, first compound 3.16 µM): 11.3%
viability, T/C (second compound 0.0316 µM, first compound 10 µM): 9.08%
viability, T/C [3]: 25.4%
viability, T/C (second compound 0.1 µM, first compound 0.1 µM): 8.37%
viability, T/C [4]: 11.1%
viability, T/C (second compound 0.1 µM, first compound 1 µM): 8.92%
viability, T/C (second compound 0.1 µM, first compound 3.16 µM): 10%
viability, T/C (second compound 0.1 µM, first compound 10 µM): 10.2%
viability, T/C [5]: 17.5%
viability, T/C (second compound 0.316 µM, first compound 0.1 µM): 12.3%
viability, T/C [6]: 8.21%
viability, T/C (second compound 0.316 µM, first compound 1 µM): 9.2%
viability, T/C (second compound 0.316 µM, first compound 3.16 µM): 7.36%
viability, T/C (second compound 0.316 µM, first compound 10 µM): 8.93%
viability, T/C [7]: 17.8%
viability, T/C (second compound 1 µM, first compound 0.1 µM): 10.5%
viability, T/C [8]: 8.43%
viability, T/C (second compound 1 µM, first compound 1 µM): 11.4%
viability, T/C (second compound 1 µM, first compound 3.16 µM): 8.77%
viability, T/C (second compound 1 µM, first compound 10 µM): 9.02%
viability, T/C [9]: 14.3%
viability, T/C (second compound 3.16 µM, first compound 0.1 µM): 7.98%
viability, T/C [10]: 11.2%
viability, T/C (second compound 3.16 µM, first compound 1 µM): 5.02%
viability, T/C (second compound 3.16 µM, first compound 3.16 µM): 14.6%
viability, T/C (second compound 3.16 µM, first compound 10 µM): 5.59%
viability, T/C [11]: 0.22%
viability, T/C (second compound 10 µM, first compound 0.1 µM): 11.5%
viability, T/C [12]: 7.59%
viability, T/C (second compound 10 µM, first compound 1 µM): 1.49%
viability, T/C (second compound 10 µM, first compound 3.16 µM): 0.95%
viability, T/C (second compound 10 µM, first compound 10 µM): 0.58%

IC50 (second compound 0.0316 µM): 35.5 nM
IC50 (second compound 0.1 µM): 19 nM
IC50 (second compound 0.316 µM): < 0.999 nM
IC50 (second compound 1 µM): < 0.999 nM
IC50 (second compound 3.16 µM): < 0.999 nM
IC50 (second compound 10 µM): < 0.999 nM
SMILES: CC[C@@]1(O)C(=O)OCc2c1cc1n(c2=O)Cc2cc3c(CN(C)C)c(O)ccc3nc2-1 + Cc1cnc(CNC(=O)c2c(=O)c3ccc(N4CCCN(C)CC4)nc3n3c2sc2ccccc23)cn1
viability, T/C [13]: 86.2%
viability, T/C [14]: 93.8%
viability, T/C [15]: 91.7%
viability, T/C [1]: 53.3%
viability, T/C [16]: 20.8%
viability, T/C [2]: 15.8%
viability, T/C [17]: 71%
viability, T/C [18]: 80.7%
viability, T/C [19]: 78.1%
viability, T/C [3]: 29%
viability, T/C [20]: 21.9%
viability, T/C [4]: 12.8%
viability, T/C [21]: 43.5%
viability, T/C [22]: 52.9%
viability, T/C [23]: 28.2%
viability, T/C [5]: 20.7%
viability, T/C [24]: 17.3%
viability, T/C [6]: 9.62%
viability, T/C [25]: 35.7%
viability, T/C [26]: 28.2%
viability, T/C [27]: 25.6%
viability, T/C [7]: 20.1%
viability, T/C [28]: 14.7%
viability, T/C [8]: 15.3%
viability, T/C [29]: 39.7%
viability, T/C [30]: 37.8%
viability, T/C [31]: 16.1%
viability, T/C [9]: 14.7%
viability, T/C [32]: 13.4%
viability, T/C [10]: 7.16%
viability, T/C [33]: 28.9%
viability, T/C [34]: 30.3%
viability, T/C [35]: 45.9%
viability, T/C [11]: 19.7%
viability, T/C [36]: 24%
viability, T/C [12]: 12.2%

IC50 (second compound 0.0316 µM): < 0.999 nM
IC50 (second compound 0.1 µM): < 0.999 nM
IC50 (second compound 0.316 µM): < 0.999 nM
IC50 (second compound 1 µM): < 0.999 nM
IC50 (second compound 3.16 µM): < 0.999 nM
IC50 (second compound 10 µM): < 0.999 nM
SMILES: CCc1c2c(nc3ccc(O)cc13)-c1cc3c(c(=O)n1C2)COC(=O)[C@]3(O)CC + Cc1cnc(CNC(=O)c2c(=O)c3ccc(N4CCCN(C)CC4)nc3n3c2sc2ccccc23)cn1
viability, T/C [13]: 39.3%
viability, T/C [14]: 18%
viability, T/C [15]: 10.7%
viability, T/C [1]: 7.46%
viability, T/C [16]: 9.54%
viability, T/C [2]: 5.6%
viability, T/C [17]: 33.9%
viability, T/C [18]: 16%
viability, T/C [19]: 11.3%
viability, T/C [3]: 13.6%
viability, T/C [20]: 5.29%
viability, T/C [4]: 3.08%
viability, T/C [21]: 20.6%
viability, T/C [22]: 21.5%
viability, T/C [23]: 15.5%
viability, T/C [5]: 9.82%
viability, T/C [24]: 7.3%
viability, T/C [6]: 2.31%
viability, T/C [25]: 21.9%
viability, T/C [26]: 25.9%
viability, T/C [27]: 11.1%
viability, T/C [7]: 9.26%
viability, T/C [28]: 12.2%
viability, T/C [8]: 1.09%
viability, T/C [29]: 26.1%
viability, T/C [30]: 14.9%
viability, T/C [31]: 9.17%
viability, T/C [9]: 2.26%
viability, T/C [32]: 2.54%
viability, T/C [10]: 0.17%
viability, T/C [33]: 15.2%
viability, T/C [34]: 7.77%
viability, T/C [35]: 8.64%
viability, T/C [11]: 8.52%
viability, T/C [36]: 6.98%
viability, T/C [12]: 0.18%
